The source of these data is ChEMBL document CHEMBL5303304, “EUbOPEN Chemogenomics Library - IncuCyte” (2023).

Common to all, as to format: toxicity, cell-based
One data set relates to U2OS. Description: Incucyte cell viability with U2OS. The conditions noted are these: human, 10 µM, compound concentration 10 uM.
The subject of the next data set is Fibroblast. As to the kind of experiment: Incucyte cell viability with human fibroblast. The conditions noted are these: 10 µM, compound concentration 10 uM.
A further data set relates to HEK-293T. As to the kind of experiment: Incucyte cell viability with HEK293T. The conditions noted are these: human, 10 µM, compound concentration 10 uM.
Also: unitless GR value; below 1 slowed growth and below 0 cell loss.

As to `O=C(NS(=O)(=O)N1CCC1)c1cc(C2CC2)c(OCC23CC4CC(CC(C4)C2)C3)cc1F`, the “Growth Rate” value in the data set with U2OS (0 h, replicate number 1) is given as -0.5; in the data set with U2OS (0 h, replicate number 2), -0.98; in the data set on U2OS (6 h, replicate number 1), 0.59; in the data set on U2OS (6 h, replicate number 2) it was 0.7; in the data set on U2OS (12 h, replicate number 2), 0.73; in the data set with U2OS (18 h, replicate number 2), 0.8. Further, the “Growth Rate” value with U2OS (24 h, replicate number 2) was 0.87; with Fibroblast (0 h, replicate number 1), 0.19; in the data set on Fibroblast (6 h, replicate number 1), 0.24; in the data set with Fibroblast (6 h, replicate number 2), -1; in the data set with Fibroblast (12 h, replicate number 2) it was -0.01; in the data set on Fibroblast (18 h, replicate number 1), 0.03. Moreover, the “Growth Rate” value in the data set on Fibroblast (18 h, replicate number 2) stood at 0.31; with Fibroblast (24 h, replicate number 1), 0.81; with Fibroblast (24 h, replicate number 2), 0.37; in the data set with HEK-293T (0 h, replicate number 1), 0.85; in the data set on HEK-293T (0 h, replicate number 2), 0.39; in the data set on HEK-293T (6 h, replicate number 1), 0.69. In addition, the “Growth Rate” value in the data set on HEK-293T (6 h, replicate number 2) is on record as 0.7; in the data set on HEK-293T (12 h, replicate number 1), 0.88; in the data set with HEK-293T (18 h, replicate number 1), 0.87; in the data set on HEK-293T (18 h, replicate number 2), 0.99; in the data set with HEK-293T (24 h, replicate number 1), 0.8; in the data set with HEK-293T (24 h, replicate number 2) it was 0.92.

For the molecule `CC1(C)CCC[C@]2(C)[C@@H](C=O)C(C=O)=CC[C@@H]12` [POLYGODIAL], the “Growth Rate” value in the data set on U2OS (0 h, replicate number 1) is 0.45; in the data set with U2OS (0 h, replicate number 2), -0.79; with U2OS (6 h, replicate number 2) it was 0.73; with U2OS (12 h, replicate number 2), 0.57; with U2OS (18 h, replicate number 2), 0.76; with U2OS (24 h, replicate number 2), 0.88. Moreover, the “Growth Rate” value was -1 in the data set on Fibroblast (6 h, replicate number 2); 0.42 in the data set on Fibroblast (12 h, replicate number 2); -0.77 with Fibroblast (18 h, replicate number 1); 0.83 in the data set on Fibroblast (18 h, replicate number 2); 0.41 in the data set with Fibroblast (24 h, replicate number 1); 0.73 in the data set on Fibroblast (24 h, replicate number 2). For the same molecule, the “Growth Rate” value is given as -0.32 with HEK-293T (6 h, replicate number 1); 0.55 in the data set on HEK-293T (6 h, replicate number 2); 0.22 in the data set with HEK-293T (12 h, replicate number 1); 0.7 in the data set on HEK-293T (12 h, replicate number 2); 0.52 in the data set with HEK-293T (18 h, replicate number 1); 0.81 in the data set on HEK-293T (18 h, replicate number 2). Besides, the “Growth Rate” value in the data set on HEK-293T (24 h, replicate number 1) came to 0.8; with HEK-293T (24 h, replicate number 2), 0.87.

In the case of `CC(C)c1ccc(/C=N/NC(=O)c2ccc(O)cc2)cc1`, the “Growth Rate” value in the data set on U2OS (0 h, replicate number 1) is -0.47; with U2OS (0 h, replicate number 2), -0.95; in the data set on U2OS (24 h, replicate number 2) it was 0.98; in the data set with Fibroblast (6 h, replicate number 1), -0.99; in the data set on Fibroblast (6 h, replicate number 2), 0.53; in the data set with Fibroblast (12 h, replicate number 2), 0.42. The “Growth Rate” value in the data set with Fibroblast (18 h, replicate number 2) is on record as 0.57; in the data set on Fibroblast (24 h, replicate number 2) it was 0.46; with HEK-293T (0 h, replicate number 1), 0.78; with HEK-293T (6 h, replicate number 1) it was 0.39; with HEK-293T (6 h, replicate number 2), 0.04; in the data set on HEK-293T (12 h, replicate number 1) it was 0.85. Also, the “Growth Rate” value in the data set with HEK-293T (12 h, replicate number 2) is 0.36; in the data set with HEK-293T (18 h, replicate number 1) it was 0.85; with HEK-293T (18 h, replicate number 2), 0.58; in the data set with HEK-293T (24 h, replicate number 1), 0.81; with HEK-293T (24 h, replicate number 2), 0.63.

For `NCc1ccc(OCCCc2sc(-c3ccc4c(c3)/C(=N/Nc3nc5ccccc5s3)CCC4)nc2C(=O)O)cc1`, the “Growth Rate” value in the data set on U2OS (0 h, replicate number 1) is 0.77; in the data set with U2OS (6 h, replicate number 1), 0.23; with U2OS (12 h, replicate number 1), 0.44; with U2OS (12 h, replicate number 2), 0.7; with U2OS (18 h, replicate number 1), 0.63; in the data set with U2OS (18 h, replicate number 2) it was 0.72. Moreover, the “Growth Rate” value is 0.58 in the data set on U2OS (24 h, replicate number 1); 0.74 with U2OS (24 h, replicate number 2); -0.83 in the data set on Fibroblast (0 h, replicate number 2); 0.94 in the data set on Fibroblast (6 h, replicate number 1); 0.54 in the data set on HEK-293T (0 h, replicate number 1); -0.79 in the data set on HEK-293T (0 h, replicate number 2).

Turning to `CN(C(=O)CCOCCOCCOCCOCCNc1cccc2c1C(=O)N(C1CCC(=O)NC1=O)C2=O)[C@H]1CC[C@@]2(C)[C@@H](CC[C@@H]3[C@@H]2CC[C@]2(C)[C@@H](c4ccc5ccncc5c4)CC[C@@H]32)C1` (stereo partly specified), the “Growth Rate” value in the data set on U2OS (6 h, replicate number 1) is 0.52; with U2OS (12 h, replicate number 1) it was 0.79; in the data set with U2OS (12 h, replicate number 2) it was -0.46; in the data set with U2OS (18 h, replicate number 1), 0.82; in the data set on U2OS (24 h, replicate number 1), 0.92; with Fibroblast (0 h, replicate number 1) it was -1. Besides, the “Growth Rate” value in the data set with Fibroblast (18 h, replicate number 2) is 0.88; with Fibroblast (24 h, replicate number 2), 0.91; in the data set on HEK-293T (0 h, replicate number 1), 0.06; with HEK-293T (0 h, replicate number 2), -0.85; with HEK-293T (6 h, replicate number 1), 0.57; in the data set on HEK-293T (6 h, replicate number 2), 1. The “Growth Rate” value with HEK-293T (12 h, replicate number 1) was determined as 0.77; in the data set on HEK-293T (12 h, replicate number 2), 0.73; in the data set on HEK-293T (18 h, replicate number 1) it was 0.76; in the data set on HEK-293T (18 h, replicate number 2), 0.79; in the data set with HEK-293T (24 h, replicate number 1), 0.88; with HEK-293T (24 h, replicate number 2) it was 0.76.

As to `c1ccc2nc(N3CCNCC3)ccc2c1` [QUIPAZINE], the “Growth Rate” value is given as -0.85 in the data set with U2OS (0 h, replicate number 1); 0.58 in the data set with U2OS (6 h, replicate number 2); 0.55 in the data set on U2OS (12 h, replicate number 1); 0.94 in the data set on U2OS (18 h, replicate number 1); 0.15 in the data set with Fibroblast (0 h, replicate number 1); 0.79 in the data set on Fibroblast (0 h, replicate number 2). The “Growth Rate” value in the data set on Fibroblast (6 h, replicate number 1) is 0.27; with Fibroblast (6 h, replicate number 2), 0.04; with Fibroblast (12 h, replicate number 1), -0.91; in the data set on Fibroblast (12 h, replicate number 2), 0.92; with Fibroblast (18 h, replicate number 1), 0.52; in the data set with Fibroblast (18 h, replicate number 2), 0.72. Also, the “Growth Rate” value was found to be 0.85 with Fibroblast (24 h, replicate number 1); 0.58 in the data set on Fibroblast (24 h, replicate number 2); 0.43 in the data set on HEK-293T (6 h, replicate number 1); 0.5 in the data set on HEK-293T (6 h, replicate number 2); 0.95 in the data set on HEK-293T (12 h, replicate number 2).

As for `CCn1c(-c2nonc2N)nc2ccccc21` [GW549034X], the “Growth Rate” value in the data set on U2OS (0 h, replicate number 1) is -1; with U2OS (18 h, replicate number 2), 0.97; with U2OS (24 h, replicate number 2), 0.93; in the data set with Fibroblast (0 h, replicate number 1), -1; in the data set on Fibroblast (0 h, replicate number 2), -0.96; with HEK-293T (0 h, replicate number 1) it was -1. Moreover, in the data set on HEK-293T (0 h, replicate number 2), the “Growth Rate” value is -0.14.

On to `NC(=O)c1ccc2[nH]c(-c3ccc(Oc4ccc(Cl)cc4)cc3)nc2c1`, for which the “Growth Rate” value in the data set with U2OS (0 h, replicate number 2) is reported as -0.59; in the data set on U2OS (6 h, replicate number 1), -0.28; in the data set with U2OS (6 h, replicate number 2), 0.74; in the data set on U2OS (12 h, replicate number 1), 0.47; with U2OS (12 h, replicate number 2) it was 0.71; in the data set on U2OS (18 h, replicate number 1), 0.72. Further, the “Growth Rate” value in the data set with U2OS (18 h, replicate number 2) is 0.83; with U2OS (24 h, replicate number 1), 0.75; in the data set with U2OS (24 h, replicate number 2), 0.82; in the data set with Fibroblast (0 h, replicate number 1), 0.02; with Fibroblast (0 h, replicate number 2), -0.68; in the data set with Fibroblast (6 h, replicate number 1), -0.26. The “Growth Rate” value in the data set on Fibroblast (12 h, replicate number 1) is -1; with HEK-293T (0 h, replicate number 1) it was 0.58; in the data set with HEK-293T (6 h, replicate number 1), 0.6; in the data set with HEK-293T (6 h, replicate number 2) it was 0.12; in the data set with HEK-293T (12 h, replicate number 2), 0.93; with HEK-293T (24 h, replicate number 2), 0.98.

On to `CC[C@@]1(c2ccccc2)NC(=O)N(Cc2ccccc2)C1=O`, for which the “Growth Rate” value in the data set with U2OS (0 h, replicate number 2) is reported as -0.81; in the data set with U2OS (6 h, replicate number 1), 0.55; in the data set with U2OS (24 h, replicate number 2), 0.99; in the data set with Fibroblast (0 h, replicate number 1), 0.94; in the data set with Fibroblast (0 h, replicate number 2) it was 0.5; with Fibroblast (6 h, replicate number 1), -0.93. Moreover, the “Growth Rate” value in the data set with Fibroblast (12 h, replicate number 2) was 0.07; in the data set on Fibroblast (18 h, replicate number 2), 0.7; in the data set on Fibroblast (24 h, replicate number 2) it was 0.58; with HEK-293T (0 h, replicate number 2), 0.93; in the data set on HEK-293T (12 h, replicate number 2), 0.77; in the data set on HEK-293T (18 h, replicate number 1) it was 0.95. For the same molecule, the “Growth Rate” value is listed as 0.86 in the data set on HEK-293T (18 h, replicate number 2); 0.84 with HEK-293T (24 h, replicate number 1); 0.82 in the data set on HEK-293T (24 h, replicate number 2).

As for `CN(C)CCCN1c2ccccc2Sc2ccc(Cl)cc21.Cl` [CHLORPROMAZINE HYDROCHLORIDE], the “Growth Rate” value in the data set on U2OS (0 h, replicate number 1) is reported as -0.42; in the data set on U2OS (0 h, replicate number 2), -0.21; with U2OS (6 h, replicate number 2), -0.06; in the data set on U2OS (12 h, replicate number 1), 0.42; with U2OS (12 h, replicate number 2) it was 0.12; with U2OS (18 h, replicate number 1) it was 0.77. Moreover, the “Growth Rate” value with U2OS (18 h, replicate number 2) is 0.33; in the data set on U2OS (24 h, replicate number 1), 0.91; in the data set with U2OS (24 h, replicate number 2), 0.39; in the data set on Fibroblast (0 h, replicate number 2) it was 0.33; in the data set on Fibroblast (6 h, replicate number 1), -0.57; with Fibroblast (12 h, replicate number 1), -0.38. Further, the “Growth Rate” value with Fibroblast (18 h, replicate number 1) is given as -0.35; in the data set on Fibroblast (24 h, replicate number 1), -0.22; in the data set on HEK-293T (0 h, replicate number 2), -0.89; in the data set on HEK-293T (6 h, replicate number 1), 0.64; in the data set with HEK-293T (6 h, replicate number 2) it was 0.48; in the data set on HEK-293T (12 h, replicate number 1), 0.66. For the same molecule, the “Growth Rate” value stood at 0.52 in the data set with HEK-293T (12 h, replicate number 2); 0.18 in the data set with HEK-293T (18 h, replicate number 1); 0.37 in the data set on HEK-293T (18 h, replicate number 2); 0.15 in the data set with HEK-293T (24 h, replicate number 1); 0.19 in the data set with HEK-293T (24 h, replicate number 2).
